Laboratory results as given in US20260193229A1, “BRISC DEUBIQUITINATING ENZYME INHIBITORS” (THE TRUSTEES OF THE UNIVERSITY OF PENNSYLVANIA, priority 2022, published 2026).

Tests used:
Type in all cases: biochemical
BRCC36 enzyme activity = target: T1, BRCC36 enzyme activity (Homo sapiens, UniProt P46736+Q15018); assay: Mode of inhibition: increasing di-Ubiquitin substrate and free Zn2+
T1 construct: made in house; host or cells: insect cells (MultiBac baculovirus)

[1] = target: ARISC (BRCC36-Abraxas-BRCC45-MERIT40) (Homo sapiens, UniProt P46736); assay: Cross-reactivity against ARISC holoenzyme; settings: FIG. 7A
USP2 = target: T2, USP2 (Homo sapiens, UniProt O75604); assay: Selectivity counter-assay against USP2; settings: FIG. 6C / 7A
T2 sequence (O75604 1-605): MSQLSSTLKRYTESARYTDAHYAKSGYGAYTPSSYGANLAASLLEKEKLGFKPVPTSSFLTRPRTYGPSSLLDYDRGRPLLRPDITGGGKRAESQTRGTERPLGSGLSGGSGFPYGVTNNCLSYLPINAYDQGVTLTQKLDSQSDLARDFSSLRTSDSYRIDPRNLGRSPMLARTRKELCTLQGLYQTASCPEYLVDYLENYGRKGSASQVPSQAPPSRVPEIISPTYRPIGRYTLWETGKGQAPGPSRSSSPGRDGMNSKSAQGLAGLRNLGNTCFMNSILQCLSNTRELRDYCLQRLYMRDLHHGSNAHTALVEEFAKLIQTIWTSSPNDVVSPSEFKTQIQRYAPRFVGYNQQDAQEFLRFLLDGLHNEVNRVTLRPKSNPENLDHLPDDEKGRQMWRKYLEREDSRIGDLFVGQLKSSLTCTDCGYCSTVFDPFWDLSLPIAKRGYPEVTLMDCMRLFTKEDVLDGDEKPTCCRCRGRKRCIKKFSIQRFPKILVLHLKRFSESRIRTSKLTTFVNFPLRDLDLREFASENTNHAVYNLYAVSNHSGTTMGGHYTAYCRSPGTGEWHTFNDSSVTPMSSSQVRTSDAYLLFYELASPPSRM

trypsin = assay: Selectivity counter-assay against trypsin; settings: FIG. 6C / 7A
[2] = target: RAP80 (BRCC36-Abraxas-BRCC45-MERIT40-RAP80) complex (Homo sapiens, UniProt P46736); assay: Cross-reactivity against RAP80 holoenzyme; settings: FIG. 7A
BRISC = target: T3, BRISC (Homo sapiens, UniProt P46736+Q15018); assay: BRISC DUB inhibition assay with quenched K63-linked di-ubiquitin substrate (TAMRA fluorescence); settings: Table 1, Activity Range Table
T3 construct: made in house; host or cells: insect cells (MultiBac baculovirus)
Description: High throughput screening. A baculoviral expression system was established to purify milligram quantities of the entire BRISC complex from insect cells. The MultiBac system was used to clone all 4 components of the BRISC complex into one vector which was then packaged into the baculovirus genome using the methods described in Zeqiraj et al., 2015 (Mol. Cell).
The assay buffer included: 50 mM HEPES-NaOH, pH 7.0; 100 mM NaCl; 1 mM DTT; 1 mg/ml BSA; and 0.03% Brij-35. BRISC was assayed at 1 nM (final concentration) with the substrate at 500 nM (final concentration). The final reaction volume was 20 μl in each 384 plate well (Corning, #3573; black, low flange, flat bottom) with a final concentration of compounds of 10 μM.
A 5 ml of enzyme solution with BRISC at 2 nM in assay buffer was made by adding 10 μl of BRISC working stock (1 μM) to 5 ml of assay buffer. A 5 ml of substrate solution was made with […] of K63-diUbiquitin (made in-house) plus […] of IQF K63-diUbiquitin by adding the appropriate volumes of diUbiquitins to 5 ml of assay buffer. 45 μL of BRISC (enzyme solution) was dispensed into columns 1-11 of a 96 well PCR plate (skirted). Buffer was only dispensed in column 12 (no enzyme control). 45 μl of substrate solution was dispensed into columns 1-12 of a 96 well PCR plate (skirted). The plate was spun down at 3000 rpm (bench top centrifuge) at room temp for 2 min to remove any air bubbles. Using a Biomek FX, liquid handler (Bekman), 10 μl of BRISC (enzyme solution) was dispensed into the 4 quadrants of a 384 well plate. 200 nl of compounds was dispensed into each well of the 384 plates using the pin tool (columns A and B usually contain DMSO only, and serve as controls), and the plates were incubated for 10-15 minutes at room temperature. 10 μl of substrate solution was dispensed into the 4 quadrants of the 384 well plate. The plate was then incubated for 30 min at room temperature in the dark and read with settings suitable for detecting TAMRA fluorescence (excitation wavelength of 540 nm and emission wavelength of 580 nm). A PHERAStar plate (BMG labtech) reader was used with a gain value of 570. The Intensity/Background (I/Bg), defined as [(Average of columns 1 and 2; DMSO controls)/(Average of columns 23 and 24; no enzyme controls)], were about 5.
The activities of the compounds disclosed in the present disclosure in inhibiting BRCC36 enzyme activity was measured in accordance with the method disclosed in Example 2.

SMILES: O=C(NC1CCNCC1)c1nn(C(=O)c2c(Cl)cccc2Cl)cc1NC(=O)c1c(Cl)cccc1Cl [Compound 1, 4-(2,6-dichlorobenzamido)-1-(2,6-dichlorobenzoyl)-N-(piperidin-4-yl)-1H-pyrazole-3-carboxamide]
- mode of inhibition (BRCC36 enzyme activity): non-competitive inhibitors
- cross reactivity to ARISC holoenzyme [1]: no significant cross reactivity
- selectivity for BRISC versus USP2 (USP2): selectivity for BRISC
- selectivity for BRISC versus trypsin (trypsin): selectivity for BRISC
- cross reactivity to RAP80 holoenzyme [2]: no significant cross reactivity
- IC50 (BRISC): 1 to 10 µM
